A word on the IC50: it is the concentration that gives 50% inhibition.

We go through 18 molecules from ChEMBL document CHEMBL1157046, “QSAR modeling of taxane analogues against colon cancer” (Eur J Med Chem, 2010).

The test system of the assay is HCT-116. Briefly: Cytotoxicity against human HCT116 cells after 72 hrs. The assay is classed as functional, cell-based. As to conditions: HCT-116, 72 h.
`CC(=O)O[C@H]1C(=O)[C@@]2(C)[C@H]([C@H](OC(=O)c3ccccc3)[C@]3(O)C[C@H](OC(=O)[C@H](O)[C@@H](NC(=O)c4ccccc4)c4ccccc4)C(C)=C1C3(C)C)[C@]1(OC(=O)CF)CO[C@@H]1C[C@@H]2O` had an IC50 of 7.08 nM.
Regarding `CC(=O)O[C@H]1C(=O)[C@@]2(C)[C@H]([C@H](OC(=O)c3ccccc3)[C@]3(O)C[C@H](OC(=O)[C@H](O)[C@@H](NC(=O)c4ccccc4)c4ccccc4)C(C)=C1C3(C)C)[C@]1(OC(=O)C(Cl)(Cl)Cl)CO[C@@H]1C[C@@H]2O`, the IC50 is 3.98 nM.
With `CCC(=O)O[C@@]12CO[C@@H]1C[C@H](O)[C@@]1(C)C(=O)[C@H](OC(C)=O)C3=C(C)[C@@H](OC(=O)[C@H](O)[C@@H](NC(=O)c4ccccc4)c4ccccc4)C[C@@](O)([C@@H](OC(=O)c4ccccc4)[C@H]21)C3(C)C` the figure was 2 nM; with `C=CC(=O)O[C@@]12CO[C@@H]1C[C@H](O)[C@@]1(C)C(=O)[C@H](OC(C)=O)C3=C(C)[C@@H](OC(=O)[C@H](O)[C@@H](NC(=O)c4ccccc4)c4ccccc4)C[C@@](O)([C@@H](OC(=O)c4ccccc4)[C@H]21)C3(C)C`, 6.03 nM.
The result for `CCCC(=O)O[C@@]12CO[C@@H]1C[C@H](O)[C@@]1(C)C(=O)[C@H](OC(C)=O)C3=C(C)[C@@H](OC(=O)[C@H](O)[C@@H](NC(=O)c4ccccc4)c4ccccc4)C[C@@](O)([C@@H](OC(=O)c4ccccc4)[C@H]21)C3(C)C` reads 1.1 nM.
The result for `CC(=O)O[C@H]1C(=O)[C@@]2(C)[C@H]([C@H](OC(=O)c3ccccc3)[C@]3(O)C[C@H](OC(=O)[C@H](O)[C@@H](NC(=O)c4ccccc4)c4ccccc4)C(C)=C1C3(C)C)[C@]1(OC(=O)C(C)C)CO[C@@H]1C[C@@H]2O` reads 5.01 nM; that for `C=C(C)C(=O)O[C@@]12CO[C@@H]1C[C@H](O)[C@@]1(C)C(=O)[C@H](OC(C)=O)C3=C(C)[C@@H](OC(=O)[C@H](O)[C@@H](NC(=O)c4ccccc4)c4ccccc4)C[C@@](O)([C@@H](OC(=O)c4ccccc4)[C@H]21)C3(C)C`, 4.47 nM.
`C/C=C/C(=O)O[C@@]12CO[C@@H]1C[C@H](O)[C@@]1(C)C(=O)[C@H](OC(C)=O)C3=C(C)[C@@H](OC(=O)[C@H](O)[C@@H](NC(=O)c4ccccc4)c4ccccc4)C[C@@](O)([C@@H](OC(=O)c4ccccc4)[C@H]21)C3(C)C` had an IC50 of 2.29 nM.
With `CC(=O)O[C@H]1C(=O)[C@@]2(C)[C@H]([C@H](OC(=O)c3ccccc3)[C@]3(O)C[C@H](OC(=O)[C@H](O)[C@@H](NC(=O)c4ccccc4)c4ccccc4)C(C)=C1C3(C)C)[C@]1(OC(=O)C3CC3)CO[C@@H]1C[C@@H]2O` the figure was 1 nM; with `CCCCC(=O)O[C@@]12CO[C@@H]1C[C@H](O)[C@@]1(C)C(=O)[C@H](OC(C)=O)C3=C(C)[C@@H](OC(=O)[C@H](O)[C@@H](NC(=O)c4ccccc4)c4ccccc4)C[C@@](O)([C@@H](OC(=O)c4ccccc4)[C@H]21)C3(C)C`, 2 nM.
With `CC(=O)O[C@H]1C(=O)[C@@]2(C)[C@H]([C@H](OC(=O)c3ccccc3)[C@]3(O)C[C@H](OC(=O)[C@H](O)[C@@H](NC(=O)c4ccccc4)c4ccccc4)C(C)=C1C3(C)C)[C@]1(OC(=O)C3CCC3)CO[C@@H]1C[C@@H]2O` the figure was 1.51 nM.
With `CCCCCC(=O)O[C@@]12CO[C@@H]1C[C@H](O)[C@@]1(C)C(=O)[C@H](OC(C)=O)C3=C(C)[C@@H](OC(=O)[C@H](O)[C@@H](NC(=O)c4ccccc4)c4ccccc4)C[C@@](O)([C@@H](OC(=O)c4ccccc4)[C@H]21)C3(C)C` the figure was 6.03 nM; with `CC(=O)O[C@H]1C(=O)[C@@]2(C)[C@H]([C@H](OC(=O)c3ccccc3)[C@]3(O)C[C@H](OC(=O)[C@H](O)[C@@H](NC(=O)c4ccccc4)c4ccccc4)C(C)=C1C3(C)C)[C@]1(OC(=O)C3CCCC3)CO[C@@H]1C[C@@H]2O`, 2 nM.
Molecule `CCOC(=O)O[C@@]12CO[C@@H]1C[C@H](O)[C@@]1(C)C(=O)[C@H](OC(C)=O)C3=C(C)[C@@H](OC(=O)[C@H](O)[C@@H](NC(=O)c4ccccc4)c4ccccc4)C[C@@](O)([C@@H](OC(=O)c4ccccc4)[C@H]21)C3(C)C` gave an IC50 of 1 nM.
Consider `CCCOC(=O)O[C@@]12CO[C@@H]1C[C@H](O)[C@@]1(C)C(=O)[C@H](OC(C)=O)C3=C(C)[C@@H](OC(=O)[C@H](O)[C@@H](NC(=O)c4ccccc4)c4ccccc4)C[C@@](O)([C@@H](OC(=O)c4ccccc4)[C@H]21)C3(C)C`, for which the IC50 is 2.57 nM.
For `CC(=O)O[C@H]1C(=O)[C@@]2(C)[C@H]([C@H](OC(=O)c3ccccc3)[C@]3(O)C[C@H](OC(=O)[C@H](O)[C@@H](NC(=O)c4ccccc4)c4ccccc4)C(C)=C1C3(C)C)[C@]1(OC(=O)NC3CCC3)CO[C@@H]1C[C@@H]2O`, the IC50 is 9.12 nM.
With `CC(=O)O[C@H]1C(=O)[C@@]2(C)[C@H]([C@H](OC(=O)c3ccccc3)[C@]3(O)C[C@H](OC(=O)[C@H](O)[C@@H](NC(=O)c4ccccc4)c4ccccc4)C(C)=C1C3(C)C)[C@]1(OC(=O)n3ccnc3)CO[C@@H]1C[C@@H]2O` the figure was 794 nM; with `COC(=O)O[C@@]12CO[C@@H]1C[C@H](O)[C@@]1(C)C(=O)[C@H](OC(C)=O)C3=C(C)[C@@H](OC(=O)[C@H](O)[C@@H](NC(=O)c4ccccc4)c4ccccc4)C[C@@](O)([C@@H](OC(=O)c4ccccc4)[C@H]21)C3(C)C` [BMS-188797], 2 nM.
